Assay results from publication PMC11643494, “Structure–Activity Relationship Studies in a Series of 2-Aryloxy-N-(pyrimidin-5-yl)acetamide Inhibitors of SLACK Potassium Channels” (Molecules, 2024).

Biological target: T1, Human G288S SLACK (Homo sapiens, UniProt Q5JUK3, G269S)
T1 construct: host or cells: CHO-K1
T1 sequence (Q5JUK3 1-1235 isoform Q5JUK3-3 G288S): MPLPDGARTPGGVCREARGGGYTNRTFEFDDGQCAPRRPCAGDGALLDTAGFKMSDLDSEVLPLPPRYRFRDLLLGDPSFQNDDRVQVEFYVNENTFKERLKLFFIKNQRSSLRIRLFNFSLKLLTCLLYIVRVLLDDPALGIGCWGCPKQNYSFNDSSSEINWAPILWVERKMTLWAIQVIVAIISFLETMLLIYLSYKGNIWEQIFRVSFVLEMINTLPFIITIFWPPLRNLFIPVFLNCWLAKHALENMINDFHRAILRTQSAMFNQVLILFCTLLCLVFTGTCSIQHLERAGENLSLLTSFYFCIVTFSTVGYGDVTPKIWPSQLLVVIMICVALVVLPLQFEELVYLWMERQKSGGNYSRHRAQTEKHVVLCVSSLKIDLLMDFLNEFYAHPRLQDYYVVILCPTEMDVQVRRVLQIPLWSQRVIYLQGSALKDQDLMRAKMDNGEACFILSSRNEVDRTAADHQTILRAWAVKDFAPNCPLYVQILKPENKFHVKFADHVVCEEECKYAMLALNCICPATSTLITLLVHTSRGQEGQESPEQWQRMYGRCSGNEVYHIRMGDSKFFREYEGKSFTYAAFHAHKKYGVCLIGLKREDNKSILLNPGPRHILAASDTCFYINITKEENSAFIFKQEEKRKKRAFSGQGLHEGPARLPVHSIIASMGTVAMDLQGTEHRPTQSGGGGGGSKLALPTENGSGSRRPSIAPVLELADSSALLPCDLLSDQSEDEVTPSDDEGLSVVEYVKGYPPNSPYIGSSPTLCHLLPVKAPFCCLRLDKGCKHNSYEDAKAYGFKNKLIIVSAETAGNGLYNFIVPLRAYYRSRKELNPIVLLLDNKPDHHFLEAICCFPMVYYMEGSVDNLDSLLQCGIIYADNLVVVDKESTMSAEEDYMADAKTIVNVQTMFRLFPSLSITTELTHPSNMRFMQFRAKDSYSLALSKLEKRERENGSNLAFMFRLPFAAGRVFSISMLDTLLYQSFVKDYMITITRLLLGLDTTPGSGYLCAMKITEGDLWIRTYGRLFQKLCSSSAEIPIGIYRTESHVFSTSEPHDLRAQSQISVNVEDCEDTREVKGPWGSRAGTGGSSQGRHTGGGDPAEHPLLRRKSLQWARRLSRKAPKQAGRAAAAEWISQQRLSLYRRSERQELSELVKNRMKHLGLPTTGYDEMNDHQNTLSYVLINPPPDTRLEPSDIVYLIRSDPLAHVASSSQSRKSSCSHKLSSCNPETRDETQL
Experiment: Whole-cell APC in CHO-K1 cells stably expressing human G288S SLACK
Assay type: cell-based
Excerpt: Finally, we chose to screen the same two compounds versus mouse SLACK and two clinically relevant GOF SLACK mutants in APC assays utilizing CHO-K1 cells stably expressing these targets (Table 7). Screening versus the mouse homolog was deemed important for evaluating the potential of the series to ultimately lead to a useful in vivo tool via further optimization.
Stably transfected monoclonal HEK293 cell lines expressing SLICK, Maxi-K α1/β3, Maxi-K α1/β4, CaV3.2, GIRK 1/2, KV2.1, KV7.2, NaV1.7, and TASK-1 were generated as previously described. Stably transfected monoclonal HEK293 cell lines expressing hERG were generated as previously described. CHO-K1 cells expressing human SLACK and disease-associated human SLACK mutations, G288S and A934T, were generated by transfecting a PiggyBac TRE mammalian expression vector (VectorBuilder, Chicago, IL, USA) containing KCNT1. FuGENE 6 (Promega, Madison, WI, USA) transfection reagent and protocol, together with Opti-MEM (Thermo Fisher Scientific, Waltham, MA, USA), were utilized according to the manufacturer’s instructions.
Automated patch clamp recording was performed with a SyncroPatch 768 PE system (Nanion, Munich, Germany) as previously described. Whole-cell recordings were performed at room temperature. Cells were harvested by first washing with PBS without Mg^2+ or Ca^2+ (Gibco, Billings, MT, USA) to remove cell culture medium, followed by dissociation with TryPLE (Gibco, Billings, MT, USA). Cells were then resuspended and diluted to 200,000 cells/mL in external solution. External solution contained 105 mM NaCl, 4 mM KCl, 1 mM MgCl2, 5 mM CaCl2, 10 mM HEPES, 40 mM N-Methyl-D-glucamine chloride, titrated to pH 7.4 with NaOH and osmolarity of 300 mOsm/kg; internal solution contained 70 mM NaCl, 70 mM KF, 10 mM KCl, 5 mM EGTA, 5mM HEPES, titrated to a pH 7.2 with KOH and osmolarity of 295 mOsm/kg.
The APC protocol was set as following: Cells were held at […] −80 mV for 100 ms, then a ramp protocol was performed from −100 mV to 80 mV at 0.4 mV/ms, hold the cell at −80 mV for another 100 ms, then steps were performed at −20 mV, 0 mV, +20 mV, +40 mV, and +60 mV for 100 ms of each step. Whole-cell currents were measured at 0 mV and normalized to current after external buffer addition.

| SMILES | G288S SLACK inhibition, result in words (APC, CHO-K1 cells) | IC50 (APC, CHO-K1 cells, Human G288S SLACK) | Imax (Human G288S SLACK, maximum inhibition at 30 µM standardized to VU0606170 (set at 100%)) |
| --- | --- | --- | --- |
| CC(C)(Oc1ccc(Cl)cc1)C(=O)Nc1cnc(Oc2c(F)cccc2F)nc1 [Analog 40] | inactive | – | – |
| CN(c1ccc(C#N)cc1)c1ncc(NC(=O)C(C)(C)Oc2ccc(Cl)cc2)cn1 [Analog 66] | only weakly active | > 10 µM | 40% |
